Laboratory results taken from patent US10455839B2, “Pre-plant biocide uses of aqueous cyanamides” (METBRO DI[…], priority 2015, dated 2019).

Columns and labels:
[1] = system: one-year-old almonds trees; test: Root system soak of one-year-old almond trees (FIGS. 24-25); format: in vivo; conditions: 750 ppm, 24 hr, entire root systems soaked in a static setting
Excerpt: Field Station evaluation where root systems of one-year-old almonds trees were placed in concentrations of HyCyn. Intact 1-yr-old trees were separated from their planting pots and placed into buckets containing open solutions of 400; 750; 1,000; 1,250; 1,500; or 3,000 ppm HyCyn for 6, 18 or 24 hr. […] The results are depicted in FIGS. 24 and 25.

[2] = system: cotton or occasional nutgrass; test: Phytotoxicity after drench in cotton field; format: in vivo; conditions: 3,000 or 4,500 ppm; never irrigated field
[3] = system: Meloidogyne incognita race-3; test: Field Station drench of sandy loam soil infested with root-knot nematode (FIGS. 18-19); format: in vivo
Method: Field Station evaluations included sandy loam soil at 10° C. vs 15° C. in adjacent sites. These sites were uniformly infested with Meloidogyne incognita race-3. The first site (10° C.) was drenched with 750 or 1,000 ppm to a depth of 40 cm and planted with carrots 70 DAT. Ten weeks later soil at the second site (15° C.) was drenched with 1,250 or 1,500 ppm and 30 DAT planted with sweet potato slips. Nematode samples were collected at 0-15 and 15-30 cm depths.

[4] = system: endo and ecotparasitic nematodes; test: Soil column drench, nematode control (Example 1, FIG. 2); format: in vivo; conditions: 750 ppm; soil screened free of roots; 15, 30 and 60 days after treatment
Method: In situ soil borne pest and disease populations were determined from known commercial locations. These infested soils were commonly of sandy loam or fine sandy loam texture that were screened free of all but the smallest of roots as they were placed into buckets. Buckets were then transported to a single location of deep loamy sand soil where 30″ long by 3″ diameter PVC open-ended pipes had been inserted to a depth of 22″ using a 3″ can auger (FIG. 1). Each soil column was then filled with infested soil to a depth of 22″ using a shovel handle to compress soil density during the soil transfer process.
The surface 8″ of each column remained vacant in order to eventually apply one liter of biocide solution onto each soil column and then determine the amount of time required to fully infiltrate the liter of water. Because infiltration rates varied from 3 hr to 4 days across each different biocide with or without adjuvant each column was used only once. Columns were cleaned and re-inserted to a different nearby location for subsequent tests. As testing proceeded dosage response curves were developed to reveal dosages needed to reach threshold levels for pest impact followed by quantification of the dosage needed to achieve as much as 100% pest kill where possible. […]

[5] = system: eight-year-old butternut trees, Juglans cathayensis; test: Drench of eight-year-old butternut trees, tree kill (FIG. 26); format: in vivo
Excerpt: Field Station evaluation of eight-year-old butternut trees, Juglans cathayensis, drenched with 2,000 ppm HyCyn within 400 or 800 L water. Two of four trees receiving 400 L solution were not completely killed but four of four trees receiving 800 L of the same solution were killed (FIG. 26).

[6] = system: Young almond trees on NEMAGUARD rootstock; test: Almond replant site soil, potted tree growth (FIGS. 22-23); format: in vivo
Excerpt: Field Station evaluation involved sandy loam soil at an almond replant site drenched uniformly with 1,000 ppm. Surface soil was collected 60 days later and potted from three treatments, water only, 250 ppm Telone EC and 1000 ppm HyCyn. Young almond trees on NEMAGUARD rootstock were planted to each pot and trees maintained for six months.

F. oxysporum race-4 = test: Field Station drench of sandy loam soil to be planted to cotton, fungal counts (FIGS. 20-21); format: in vivo, Fusarium oxysporum; conditions: 3,000 or 4,500 ppm drenched to 40 cm; sandy loam at 10° C.; counted 28 and 70 DAT
Method: Field Station evaluation in sandy loam soil at 10° C. to be planted to cotton soil was drenched with 3,000 or 4,500 ppm HyCyn to 40 cm depth. F. oxysporum race-4 were identified and counted at 28 DAT (FIG. 20) and 70 DAT (FIG. 21).

P. vulnus = test: Five-day sieve-mist extraction of nematodes from roots and soil after tree drench (FIG. 27); format: in vivo, Pratylenchus vulnus; conditions: 2,000 ppm drench

N#CN [HyCyn, hydrogen cyanamide]
tree survival after root soak [1]: no tree survived or re-initiated growth | burning of leaves of cotton or occasional nutgrass [2]: did not cease even five months after treatment | nematode control ([3]; 750 or 1,000 ppm drenched to 40 cm, sandy loam soil at 10° C., carrots): no nematode control | nematode control ([3]; 1,250 or 1,500 ppm, sandy loam soil at 15° C., sweet potato): did provide nematode control | effect on nematode populations in test soil [4]: elimination of endo and ecotparasitic nematodes | trees not completely killed ([5]; 2,000 ppm within 400 L water): Two of four | trees killed ([5]; 2,000 ppm within 800 L water): four of four | root rejection component of the replant problem ([6]; 1,000 ppm): provides a remedy for the root rejection component of the replant problem | tree growth after six months (FIG. 23) ([6]; 1,000 ppm, compared to soil treated with 250 ppm Telone ec or untreated soil): improved growth | tree growth within 2 months after planting ([6]; soil drenched with 1,000 ppm, collected 60 days later and potted, versus water only): improved growth | plant biomass at the 6th month ([6]; soil drenched with 1,000 ppm, compared to the untreated): plant biomass differences were greater | rate needed to halt F. oxysporum (F. oxysporum race-4): highest rate was necessary to halt F. oxysporum | kill of soil dwelling nematodes (P. vulnus; beneath the surface 90 cm of treated soil): 99.9% | kill of P. vulnus from root samples (P. vulnus; root samples, FIG. 27: 30 DAT): kill of all P. vulnus
